Laboratory results as given in US20240345376A1, “SYSTEM AND METHOD FOR NANOSCALE AXIAL LOCALIZATION AND SUPER […] IMAGING WITH HEIGHT-[…]” (The George Washington University, priority 2021, published 2024).

Test system: SKBR3 cells
Experiment: Plasma membrane tension and bending modulus mapping from MAxSIM height fluctuation data in live cells
Assay type: cell-based
Conditions: 5 μM for 30 minutes, FIG. 12C
Source text: Analysis of single-pixel-level plasma membrane biomechanics in live cells using the time-dependent membrane heights acquired by MAxSIM imaging: Utilizing MAxSIM technology, we mapped the membrane tension and bending modulus of plasma membranes in MCF7 cells (low HER2 expression) and SKBR3 (HER2 overexpression enabling constitutive HER2 activity). […] This approach, based on the Helfrich-Canham model, has been commonly employed in the literature, allowing the membrane tension (o) and bending modulus (K) to be linked to height fluctuations by the following equation.
where ? |h(q)|^2 ? represents the power spectral density of the membrane height fluctuations, q is the wave vector, kbT is the thermal energy, σ is the membrane tension, and κ is the bending modulus. From fitting the raw experimental data to this function, membrane tension (σ) and bending modulus (κ) are extracted (FIGS. 12A, 12B, 12C). To identify mechanical compartments, we will utilize and compare various cluster analysis methods we have tested, including K-means analysis, which groups similar data points into K clusters based on their proximity to cluster centers, and DBscan, a density-based clustering algorithm that groups data points based on their proximity.
1. Super-resolution imaging and single-molecule-tracking tools and mechanical property measurements: a. […]

C/C1=C/C(=O)O[C@@H]2C[C@@H](CC[C@H](C)/C=C\C=C\CC1)O[C@@](O)([C@@H]1CSC(=O)N1)C2 [latrunculin A]
mechanical compartmentalization (membrane tension and bending modulus) on the basal plasma membrane: significant reduction
